One may read the IC50 as the concentration needed to halve the response being measured. A word on the EC50: it is the concentration needed to bring the measured effect to its halfway point. What is called inhibition is the drop in the measured response relative to a control, in per cent. Low readings indicate little suppression, high ones strong suppression.

The structures appear in SMILES notation. Structures can show the parent of a compound that is named as a salt. Where two headings read alike, the source gives them in different places.

One test addresses T1, p65 (RelA) (Homo sapiens, UniProt Q04206).
T1 construct: purchased Active Motif
Put plainly: TransAM NF-κB family DNA binding ELISA, p65. Conditions: binding to NF-κB consensus oligonucleotide. It counts as biochemical. On the procedure: (§1) The binding activity of NF-κB heterodimer or homodimer subunits from activated nuclear extracts or purified recombinant NF-κB proteins exposed to the drug compounds was evaluated using the TransAM NF-κB Family binding ELISA (Active Motif). 3-5 μg of nuclear extracts from TNFα activated Hela or Raji cells (Active Motif) or 20 ng of purified recombinant proteins (p65 and p50 from Active Motif, p52 from Santa Cruz) were incubated for 1 hour at room temperature with 20 μL drug compounds diluted in Complete Lysis buffer without DTT. Treated samples were then transferred to 30 μL Complete Binding Buffer (with DTT) in microplate wells pre-coated with the NF-κB consensus oligonucleotide. […] The plate was incubated for 1 hour at room temperature with gentle shaking and then washed 3 times with 200 μL 1× Wash Buffer. NF-κB p65, p50, p52, RelB, or c-Rel subunits bound to the plate were detected with 100 μL of the primary antibody (diluted 1:1000 in 1× Antibody Buffer) specific for that subunit. The plate was incubated for 1 hour at room temperature and then washed 3 times with 200 μL 1× Wash Buffer. Next, 100 μL of a HRP conjugated goat anti-rabbit antibody (diluted 1:1,000 in 1× Antibody Buffer) was added to each well. The plate was incubated for 1 hour at room temperature and then washed 4 times with 200 μL 1× Wash Buffer. 100 μL of room temperature Developing Solution was added to each well. The reaction was allowed to develop for 2-10 minutes until a medium dark blue color developed (depending on the subunit activity in the lot of extract or lot of recombinant protein used) and then the reaction was stopped with 100 μL Stop Solution yielding a yellow color. Absorbance was recorded using a Becton-Dickinson DTX 880 Multimode Detector at 450 nm with a reference wavelength subtracted at 620 nm. FIGS. 2, 3 and 4 illustrate the effect of Example 10 on inhibiting RelA, RelB and c-Rel binding to NF-κB sites.
For orientation: In an ELISA, binding on a coated surface is turned into a signal by an enzyme label.

Test [1] concerns IL-6 release from RAW264.7 cells. Put plainly: LPS-stimulated IL-6 release from RAW264.7 cells (ELISA). Conditions: 2 h pretreatment, 1 μg/mL LPS 20-24 h, read-out: RAW 264.7 IL-6 release EC50. It counts as cell-based, mouse. On the procedure: RAW 264.7 cells were seeded at 4×10^4 cells per well n complete growth medium in 96 well white TC plates with clear bottoms one day prior to the assay. The next day the cells were washed once and 100 μL fresh growth media was added. Cells were pretreated with 0.5 μL from a 6 point 200× dilution series of the test compounds in DMSO for 2 hours. Following pretreatment with the drugs, the inflammatory response was induced by adding 5 μL of a 20 μg/mL solution of LPS (Sigma). The cells were incubated in the presence of the drugs and 1 μg/mL LPS for another 20-24 hours. Typically after treatment the total DMSO was […] of the culture volume and the final concentrations of the compounds were approximately: 40, 20, 10, 1, 0.2 and 0 μM depending on the MW of each compound. Modified dilution series were prepared as needed to get adequate dose response curves without changing the % DMSO. Samples were run in duplicate or triplicate and included DMSO treated control wells with and without LPS stimulation. Drugs with a known activity such as Parthenolide or DHMEQ were run as experimental controls. After 20-24 hours LPS activation, the media supernatant was collected from the cells and replaced with fresh media. The supernatant samples were cleared by centrifugation at 1,000×g for 5 minutes, transferred to fresh storage plates, and stored frozen at −30° C.
After determining the appropriate supernatant dilutions experimentally, mIL-6 levels in the supernatants were quantified using Quantikine™ mouse IL-6 immunoassay (R&D Systems) according to the manufacturer's protocol. […] diluted in Calibrator Diluent were added to 50 μL of Assay Diluent in microplate wells pre-coated with an anti-mouse IL-6 capture antibody. Controls included a calibrated positive IL-6 control sample, non-specific binding (NSB) wells containing Calibrator Diluent but no IL-6, and a recombinant mouse IL-6 standard dilution series (10-1000 pg/mL). The plates were incubated at room temperature for 2 hours with shaking and then washed 5 times with 400 μL 1× Wash Buffer. […] anti-mouse IL-6 antibody was added to each well to detect IL-6 captured on the plate. The plates were incubated at room temperature for 2 hours and then washed 5 times with 400 μL 1× Wash Buffer. Equal volumes of Color Reagents A and B were mixed and 100 μL of this HRP Substrate Solution was added to each well on the plate. The blue color was allowed to develop for 30 minutes and then the reaction was stopped using 100 μL of Stop Solution yielding a yellow color. Absorbance at 450 nm with a reference wavelength subtracted at 595 nm was recorded using a Becton-Dickinson DTX 880 Multimode Detector.
The concentration of mIL-6 in the unknown samples was determined from a curve-fit of the mIL-6 standard absorbance data and multiplying by the dilution factor. The maximum activity achieved in the absence of the inhibitor (DMSO+LPS treated wells) was arbitrarily given a value of 100%; likewise the minimum activity in the absence of the stimulant (no LPS) was assigned a value of 0%. Inhibition of the amount of mIL-6 cytokine released in the drug treated wells was calculated relative to the maximum activation in the DMSO+LPS treated control wells (ie. % inhibition=100−(drug+LPS treated)/(DMSO+LPS treated)). Dose response curves were used to determine the effective concentration to inhibit 50% of the mIL-6 cytokine released (IC50) by means of a SigmaPlot macro which fits a sigmoidal dose-response curve to the (log 10) μM concentration versus % inhibition. […] This technique yields an objective value for the IC50 provided that 50% inhibition was approached at the concentrations tested. FIG. 5 illustrates the effect of the compound of Example 10 on inhibiting IL-6 release.

In another test the target is T2, RelB (Homo sapiens, UniProt Q01201).
T2 sequence (Q01201 1-579): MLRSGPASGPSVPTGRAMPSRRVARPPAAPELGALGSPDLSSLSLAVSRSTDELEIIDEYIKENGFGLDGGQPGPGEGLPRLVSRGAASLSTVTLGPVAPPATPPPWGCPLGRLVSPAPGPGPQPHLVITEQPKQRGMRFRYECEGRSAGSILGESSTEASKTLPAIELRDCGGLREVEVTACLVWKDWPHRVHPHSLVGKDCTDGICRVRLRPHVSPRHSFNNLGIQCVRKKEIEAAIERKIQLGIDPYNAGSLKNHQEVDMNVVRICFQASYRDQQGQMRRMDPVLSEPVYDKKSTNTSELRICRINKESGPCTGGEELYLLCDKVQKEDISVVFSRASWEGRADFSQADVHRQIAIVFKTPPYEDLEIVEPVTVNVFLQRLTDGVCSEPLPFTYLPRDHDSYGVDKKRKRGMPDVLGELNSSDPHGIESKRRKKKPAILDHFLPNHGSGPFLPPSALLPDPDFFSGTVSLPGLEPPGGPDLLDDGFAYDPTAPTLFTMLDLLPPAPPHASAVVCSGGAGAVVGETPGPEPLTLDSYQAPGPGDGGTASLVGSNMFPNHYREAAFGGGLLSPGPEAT
Description: TransAM NF-κB family DNA binding ELISA, RelB. It counts as biochemical. Particulars: for IC50: binding to NF-κB consensus oligonucleotide, cells without % sign. On the procedure: as §1

The mark [2] stands for this setting: Mus musculus, RAW264.7, RAW264.7 cells.

T1 sequence (Q04206 whole entry): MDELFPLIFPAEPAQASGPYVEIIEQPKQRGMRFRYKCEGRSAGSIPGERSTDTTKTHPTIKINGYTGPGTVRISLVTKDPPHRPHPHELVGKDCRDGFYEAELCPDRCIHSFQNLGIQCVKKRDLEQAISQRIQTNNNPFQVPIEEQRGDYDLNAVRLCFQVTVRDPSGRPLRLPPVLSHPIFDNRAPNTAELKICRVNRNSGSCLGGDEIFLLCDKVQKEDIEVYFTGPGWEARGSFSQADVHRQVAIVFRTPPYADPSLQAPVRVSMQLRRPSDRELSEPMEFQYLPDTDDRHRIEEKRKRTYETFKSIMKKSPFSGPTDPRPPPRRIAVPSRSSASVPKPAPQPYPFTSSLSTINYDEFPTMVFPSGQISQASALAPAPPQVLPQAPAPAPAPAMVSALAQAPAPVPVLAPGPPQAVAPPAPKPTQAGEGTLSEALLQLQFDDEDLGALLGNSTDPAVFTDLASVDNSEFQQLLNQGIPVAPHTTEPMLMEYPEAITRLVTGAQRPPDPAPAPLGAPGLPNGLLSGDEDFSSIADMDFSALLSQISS

For the compound `CN(C)c1ccc(C(=O)NC2=CC(=O)C3OC3C2O)c(O)c1` (racemic) [Example 10, (±)-4-(dimethylamino)-2-hydroxy-N-(2-hydroxy-5-oxo-7-oxabicyclo[4.1.0]hept-3-en-3-yl)benzamide], the IC50 was found to be 3900 nM on p65 (RelA) and 23000 nM on RelB. Also, in test [1] (setting [2]), the EC50 amounted to 440 nM.

`CN(C)c1ccc(C(=O)NC2=CC(=O)C3OC3C2O)c(O)c1` (racemic) [Example 19, (±)-4-(dimethylamino)-2-hydroxy-N-(2-hydroxy-5-oxo-7-oxabicyclo[4.1.0]hept-3-en-3-yl)benzamide trifluoroacetate]: the IC50 came to 3000 nM at p65 (RelA) and 3300 nM on RelB. For the same compound, in test [1] (RAW264.7 cells, trifluoroacetate), the EC50 came to 740 nM.

On to `O=C(NC1=CC(=O)C2OC2C1O)c1ccc(C(F)(F)F)cc1O` (racemic) [Example 1, 2-hydroxy-N-(2-hydroxy-5-oxo-7-oxabicyclo[4.1.0]hept-3-en-3-yl)-4-(trifluoromethyl)benzamide], for which, at p65 (RelA), the IC50 came to 66300 nM. Moreover, the EC50 in test [1] (setting [2]) is 3100 nM. For the same compound, the inhibition at 5 µM on RelB was determined as 6%.

As for `O=C(NC1=CC(=O)C2OC2C1O)c1ccc(Cl)cc1O` (racemic) [Example 2, (±)-4-chloro-2-hydroxy-N-(2-hydroxy-5-oxo-7-oxabicyclo[4.1.0]hept-3-en-3-yl)benzamide], at p65 (RelA), the IC50 stood at 26300 nM. The EC50 in test [1] (setting [2]) is 1300 nM. This compound returned an inhibition at 5 µM at RelB of 18%.

`O=C(NC1=CC(=O)C2OC2C1O)c1cccc(Cl)c1O` (racemic) [Example 6, (±)-3-chloro-2-hydroxy-N-(2-hydroxy-5-oxo-7-oxabicyclo[4.1.0]hept-3-en-3-yl)benzamide] returned an IC50 on p65 (RelA) of 19400 nM. The EC50 in test [1] (setting [2]) is 2500 nM. Moreover, at 5 µM the inhibition on RelB was 13%.

Regarding `O=C(NC1=CC(=O)C2OC2C1O)c1ccc2ccccc2c1O` (racemic) [Example 8, (±)-1-hydroxy-N-(2-hydroxy-5-oxo-7-oxabicyclo[4.1.0]hept-3-en-3-yl)-2-naphthamide], the IC50 on p65 (RelA) was 45200 nM. The EC50 in test [1] (setting [2]) was determined as 300 nM. The inhibition at 5 µM on RelB was determined as 15%.

On p65 (RelA), `O=C(NC1=CC(=O)C2OC2C1O)c1cc2ccccc2cc1O` (racemic) [Example 7, (±)-3-hydroxy-N-(2-hydroxy-5-oxo-7-oxabicyclo[4.1.0]hept-3-en-3-yl)-2-naphthamide] gave an IC50 of 488000 nM. Also, the EC50 in test [1] (setting [2]) was 1400 nM. On RelB, this compound displayed an inhibition at 5 µM of 6%.

As to `COc1c(C(=O)NC2=CC(=O)C3OC3C2O)ccc(F)c1F` (racemic) [Example 16, (±)-3,4-difluoro-N-(2-hydroxy-5-oxo-7-oxabicyclo[4.1.0]hept-3-en-3-yl)-2-methoxybenzamide], the values for the IC50 on p65 (RelA) and on RelB were 1500 nM and 2100 nM, respectively. Moreover, the EC50 in test [1] (setting [2]) is 270 nM.

Take `COc1ccc(C(=O)NC2=CC(=O)C3OC3C2O)c(O)c1` (racemic) [Example 5, (±)-2-hydroxy-N-(2-hydroxy-5-oxo-7-oxabicyclo[4.1.0]hept-3-en-3-yl)-4-methoxybenzamide]: the IC50 on p65 (RelA) was 14200 nM. Further, the EC50 in test [1] (setting [2]) is 420 nM. On RelB, this compound yielded an inhibition at 5 µM of 17%.

With `O=C(NC1=CC(=O)C2OC2C1O)c1cc2cc(Br)ccc2cc1O` (racemic) [Example 15, (±)-7-bromo-3-hydroxy-N-(2-hydroxy-5-oxo-7-oxabicyclo[4.1.0]hept-3-en-3-yl)-2-naphthamide], the IC50 on p65 (RelA) was 241000 nM; on RelB, 3900 nM. The EC50 in test [1] (setting [2]) is 220 nM.

Turning to `COc1cc(N(C)C)ccc1C(=O)NC1=CC(=O)C2OC2C1O` (racemic) [Example 20, (±)-4-(dimethylamino)-N-(2-hydroxy-5-oxo-7-oxabicyclo[4.1.0]hept-3-en-3-yl)-2-methoxybenzamide], the IC50 at p65 (RelA) turned out to be 910 nM; at RelB it was 1000 nM. Moreover, the EC50 in test [1] (setting [2]) stood at 240 nM.

The values are drawn from patent US20120046357A1, “Benzamide and Napthamide Derivatives Inhibiting Nuclear Factor-Kappa (B) - (NK-kB)” (Profectus Biosciences, Inc., priority 2009, published 2012).
